# Test results from patent US20060188938A1, “Compounds for inhibiting beta-amyloid production and methods of identifying the compounds” (priority 2005, published 2006).
# System: β-amyloid production by 7W WT APP751 CHO cells
# Experiment: Screening of dihydropyridine compounds of Table 2, Aβ1-40 and Aβ1-42 (Example 5)
# Type: cell-based, Chinese hamster
# Conditions: 3, 10, 30 and 100 μM, 24 hours (FIGS. 22A, 22B, 23A, 23B)
# Procedure: The 7W WT APP751 CHO cells were plated in 24-well cell culture plates in quadruplicate, containing 1 ml of culture medium, and treated with various calcium channel blocker compounds for 4 hours, 24 hours or 48 hours at 37° C. and 5% CO2. All test compounds were diluted in dimethyl sulfoxide (DMSO) before being added to the cultured confluent 7W WT APP751 CHO cells. The culture medium was collected and diluted 5-fold for the 4 hours assay and 50-fold for the 24 hour assay before being assayed by ELISAs for Aβ1-40 and Aβ1-42, respectively. Concentrations of Aβ1-40 and Aβ1-42, expressed in pg/ml, were determined using commercially available ELISAs (Biosource, CA) in a colorimetric assay using labeled antibodies detected spectrophotometrically.
# The screening of dihydropyridine compounds was conducted according to the procedure described in Example 1. Each compound was added to confluent cells to a final concentration of 3, 10, 30 or 100 μM and tested. Each of these compounds was added to confluent cells to a final concentration of 3 μM (noted as “C” in FIG. 24) or 10 μM (noted as “B” in FIG. 24).
row,Structure (SMILES),concentration of Aβ1-40 or Aβ1-42 compared to control
1,"CCOC(=O)C1=C(C)NC(C)=C(C(=O)OCC)C1c1ccccc1[N+](=O)[O-] [Example 2-29, Diethyl 1,4-dihydro-2,6-dimethyl-4-(2-nitrophenyl)pyridine-3,5-dicarboxylate]",decreased
2,"CCOC(=O)C1=C(C)NC(C)=C(C(=O)OCC)C1c1ccccc1Br [Example 2-23, Diethyl 4-(2-bromophenyl)-1,4-dihydro-2,6-dimethylpyridine-3,5-dicarboxylate]",decreased
3,"CC1=C(C(=O)OC(C)(C)C)C(c2ccccc2[N+](=O)[O-])C(C(=O)OC(C)(C)C)=C(C)N1 [Example 2-33, Di-tert-butyl 1,4-dihydro-2,6-dimethyl-4-(2-nitrophenyl)pyridine-3,5-dicarboxylate]",decreased
4,COCCOC(=O)C1=C(C)NC(C)=C(C(=O)OCCOC)C1c1ccccc1Cl [Example 2-19],decreased
5,"CCOC(=O)C1=C(C)NC(C)=C(C(=O)OCC)C1c1ccccc1F [Example 2-27, Diethyl 4-(2-fluorophenyl)-1,4-dihydro-2,6-dimethylpyridine-3,5-dicarboxylate]",decreased
6,"CC1=C(C(=O)OC(C)(C)C)C(c2ccccc2F)C(C(=O)OC(C)(C)C)=C(C)N1 [Example 2-28, Di-tert-butyl 4-(2-fluorophenyl)-1,4-dihydro-2,6-dimethylpyridine-3,5-dicarboxylate]",decreased

# Same assay, conditions: 3 and 10 μM, 24 hours (FIG. 24)
row,Structure (SMILES),concentration of Aβ1-40 compared to control
1,CC1=C(C(=O)OC(C)(C)C)C(c2cc(Br)ccc2F)C(C(=O)OC(C)(C)C)=C(C)N1 [Example 3-42],decreased
2,"CC1=C(C(=O)OC(C)(C)C)C(c2ccc(Br)cc2F)C(C(=O)OC(C)(C)C)=C(C)N1 [Example 3-34, Di-tert-butyl 4-(4-bromo-2-fluorophenyl)-1,4-dihydro-2,6-dimethylpyridine-3,5-dicarboxylate]",decreased
3,"CCOC(=O)C1=C(C)NC(C)=C(C(=O)OCC)C1c1cc(Br)ccc1F [Example 3-41, Diethyl 4-(5-bromo-2-fluorophenyl)-1,4-dihydro-2,6-dimethylpyridine-3,5-dicarboxylate]",decreased
4,CCOC(=O)C1=C(C)NC(C)=C(C(=O)OCC)C1c1cccc(F)c1F [Example 3-22],decreased
5,CC1=C(C(=O)OC(C)(C)C)C(c2cccc(F)c2F)C(C(=O)OC(C)(C)C)=C(C)N1 [Example 3-23],decreased
6,"COCCOC(=O)C1=C(C)NC(C)=C(C(=O)OCCOC)C1c1ccc(Br)cc1 [Example 3-38, Bis(2-methoxyethyl) 4-(4-bromophenyl)-1,4-dihydro-2,6-dimethylpyridine-3,5-dicarboxylate]",decreased

# System: not given
# Experiment: not given
# Conditions: not given
row,Structure (SMILES),melting point [°C]
1,"CCOC(=O)C1=C(C)NC(C)=C(C(=O)OCC)C1c1ccccc1[N+](=O)[O-] [Example 2-29, Diethyl 1,4-dihydro-2,6-dimethyl-4-(2-nitrophenyl)pyridine-3,5-dicarboxylate]",120 to 121
2,"CC1=C(C(=O)OC(C)(C)C)C(c2ccccc2F)C(C(=O)OC(C)(C)C)=C(C)N1 [Example 2-28, Di-tert-butyl 4-(2-fluorophenyl)-1,4-dihydro-2,6-dimethylpyridine-3,5-dicarboxylate]",201 to 202

# System: Tg APPsw mice
# Experiment: not given
# Conditions: Tg APPsw mice given ibuprofen; cited from earlier work
row,Structure (SMILES),"β-amyloid deposits, astrocytosis, and dystrophic neurites"
1,CC(C)Cc1ccc(C(C)C(=O)O)cc1 (stereo not drawn) [ibuprofen],reduction
